Laboratory results published in patent US20260138969A1 (Korea Research Institute of Chemical Technology, priority 2023, published 2026).

How the values were obtained:
PC12 cells [1] = experiment: Neuronal protective efficacy against MPP+ (MTT); format: cell-based; settings: Rattus norvegicus, PC-12, MPP 2 mM, Control = 100, read-out: cell viability (AVE)
Description: (§1) The neuronal toxicity substances 6-OHDA (6-hydroxydopamine hydrobromide) and MPP+ (1-methyl-4-phenylpyridinium) were purchased from Sigma-Aldrich (Saint Louis, MO, USA) and made into 100 mM DMSO stock. PC12 cells were seeded on 96-well plates with 4 pieces of 1×10 per well and incubated for one day. The cells were pretreated with each concentration of embodied compound for 1 h. Subsequently, 40 μM 6-OHDA and 2 mM MPP^+ were added and incubated for 24 hours, respectively. Subsequently, cell viability was measured using MTT (Invitrogen, MA, USA).

SH-SY5Y cells = experiment: Cytoprotective effects in MPP+-induced human neurons (CCK-8); format: cell-based; settings: MPP+ 5 mM induced cytotoxicity, cell viability by CCK-8
Description: SH-SY5Y cells were purchased from ATCC and cultured at 37° C. and 5% CO2 in RPMI medium containing 10% FBS and 1% penicillin and streptomycin. MPP+ was purchased from Sigma Aldrich and treated with 5 mM to induce cytotoxicity.

[2] = system: CDAHFD-induced non-alcoholic steatohepatitis mouse model; experiment: CDAHFD-induced non-alcoholic steatohepatitis mouse model: liver fibrosis (Picrosirius red); format: in vivo; settings: Selonsertib 30 mg/kg, Example 3 10 and 30 mg/kg, Example 2 10 and 30 mg/kg PO QD; CDAHFD diet 4 and 8 weeks
Description: Creation of CDAHFD-induced NASH model and drug administration were carried out by dividing C57BL/6 male mice at 3 weeks of age into 7 groups as shown in Table 16 below. The control group (G1) was fed standard feed and water. Groups G2 to G7 were fed the CDAHFD (Research Diet Inc, #A06071302) diet for 4 and 8 weeks.
Picrosirius red staining was used for histological visualization of collagen fibers. Histopathology analysis evaluated the efficacy of improving liver fibrosis.
For mice in each group, three sections of the liver fixed with 4% PFA (paraformaldehyde) were prepared with paraffin blocks. Paraffin blocks were sectioned to a thickness of 5 μm (Histocore AUTOCUT R, Leica Microsystems, Germany) and the sections were mounted on silane-coated slides (MUTO, JPN) and stored until staining.
Xylene was used to remove paraffin from the slides, and the slides were moisturized and washed. The slides were stained with a solution of Picrosirius red (ab150681, Abcam, UK) and washed off with a solution of acetic acid. The slides were fitted after dehydration and cleaning using alcohol and xylene. For each section, two images of different areas were taken using a microscope (Axioscan7, ZEISS, Germany). The fibrotic area was measured using image J software compared to the total area. FIGS. 23a and 23b are graphs and images of Picrosirius red stained area ratios in the liver of a CDAHFD-induced mouse model of nonalcoholic steatohepatitis.

PC12 cells [3] = experiment: Neuronal protective efficacy against 6-OHDA (MTT); format: cell-based; settings: Rattus norvegicus, PC-12, 6-OHDA 40 μM, Control = 100, read-out: cell viability (AVE)
Description: as §1

[4] = Distribution in the mouse brain (plasma and brain AUC); format: in vivo
Description: The blood-brain barrier permeability in ICR mice was confirmed by oral administration of 10 mg/kg of test material. Male […] mice were fasted for 15 h prior to administration. The test material was administered at a dose of 10 mg/kg and a volume of 5 mL/kg, and the solvent composition was N-Methyl-2-pyrrolidone (NMP), Polyethylene glycol 400 (PEG 400), and distilled water (D.W) at a volume ratio of 10:40:50(%), respectively. After administration, blood and brain tissue samples were taken by sacrificing mice with carbon dioxide inhalation at each time point corresponding to 1, 4, and 8 hours. Whole blood was collected from the abdominal vena cava, and brain samples were collected after systemic perfusion with saline to remove as much blood as possible.
The distribution ratio in mouse plasma and brain was calculated by calculating the AUC after concentration quantification in each tissue.

[5] = biological target: T1, recombinant human ASK1 protein (Homo sapiens, UniProt Q99683); experiment: Evaluation of ASK1 inhibition activity ([gamma-33P]-ATP, scintillation counting); format: biochemical; settings: 0.5 uM; activity of group without compound set at 100%; read-out: Remaining kinase activity (%) at 0.5 uM
T1 sequence (Q99683 1-1374): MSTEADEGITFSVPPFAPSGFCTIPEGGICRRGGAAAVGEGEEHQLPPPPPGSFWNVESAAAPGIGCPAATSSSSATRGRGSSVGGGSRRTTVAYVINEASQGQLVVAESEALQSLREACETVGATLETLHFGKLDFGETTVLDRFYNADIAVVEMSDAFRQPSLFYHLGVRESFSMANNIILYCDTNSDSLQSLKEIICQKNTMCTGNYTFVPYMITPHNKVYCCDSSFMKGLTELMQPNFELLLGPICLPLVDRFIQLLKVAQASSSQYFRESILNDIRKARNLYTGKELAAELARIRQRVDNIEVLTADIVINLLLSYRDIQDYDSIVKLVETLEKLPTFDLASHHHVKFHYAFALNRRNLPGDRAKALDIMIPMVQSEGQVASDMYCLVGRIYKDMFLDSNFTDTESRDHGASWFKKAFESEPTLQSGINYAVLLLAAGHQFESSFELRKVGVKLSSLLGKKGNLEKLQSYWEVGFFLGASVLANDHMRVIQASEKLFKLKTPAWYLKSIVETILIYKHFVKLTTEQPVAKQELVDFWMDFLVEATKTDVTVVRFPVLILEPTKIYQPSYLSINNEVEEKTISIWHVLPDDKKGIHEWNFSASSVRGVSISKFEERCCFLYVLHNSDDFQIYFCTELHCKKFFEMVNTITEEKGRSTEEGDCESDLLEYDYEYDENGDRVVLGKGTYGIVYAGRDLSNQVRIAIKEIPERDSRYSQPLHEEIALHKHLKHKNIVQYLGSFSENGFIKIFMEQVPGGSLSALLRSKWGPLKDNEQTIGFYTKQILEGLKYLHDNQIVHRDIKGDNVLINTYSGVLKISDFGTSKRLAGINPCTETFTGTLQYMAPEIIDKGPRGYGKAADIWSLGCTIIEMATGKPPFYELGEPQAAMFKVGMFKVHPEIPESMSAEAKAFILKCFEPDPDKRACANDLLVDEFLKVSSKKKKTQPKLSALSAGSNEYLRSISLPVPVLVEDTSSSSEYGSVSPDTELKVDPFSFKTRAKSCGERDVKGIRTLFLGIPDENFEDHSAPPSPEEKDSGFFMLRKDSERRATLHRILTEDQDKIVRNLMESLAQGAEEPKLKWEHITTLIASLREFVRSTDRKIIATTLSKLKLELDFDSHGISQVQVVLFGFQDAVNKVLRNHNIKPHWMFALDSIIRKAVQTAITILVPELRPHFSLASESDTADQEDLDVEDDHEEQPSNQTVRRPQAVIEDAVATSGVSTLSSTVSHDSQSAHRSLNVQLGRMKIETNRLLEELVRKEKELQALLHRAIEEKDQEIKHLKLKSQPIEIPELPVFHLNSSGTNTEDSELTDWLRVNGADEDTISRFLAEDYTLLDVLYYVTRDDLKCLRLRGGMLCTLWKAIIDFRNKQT
Description: The recombinant human ASK1 protein was initiated by adding a mixture of Mg/ATP to the reaction solution (8 mM MOPS PH 7.0, 0.2 mM EDTA, 0.33 mg/mL myelin basic protein, 10 mM Mg Acetate and [gamma-33P]-ATP), and the reaction was terminated by adding 0.5% phosphoric acid after 40 min at room temperature.

[6] = system: Reserpine-induced fibromyalgia rat model; experiment: Reserpine-induced fibromyalgia rat model: pain (von Frey test); format: in vivo; settings: gabapentin 50 mg/kg IP QD; Example 2 3, 10, 30 mg/kg PO QD; days 1, 2, 4, 6
Description: Reserpine-induced fibromyalgia model generation and drug administration were carried out on 6-week-old male SD rats divided into 6 groups as shown in Table 15 below: control group (G1), reserpine+delivery (G2), reserpine+gabapentin 50 mg/kg (G3), reserpine+Example 2 3 mg/kg (G4), 10 mg/kg (G5), and 30 mg/kg (G6). To create a rat fibromyalgia model, reserpine (Sigma-aldrich, 1 mg/kg) dissolved in 0.5% acetic acid was administered subcutaneously once for 3 days from 3 days before the start of the experiment. Beginning on Day 1, the once-daily (QD) delivery body, gabapentin, and embodiment 2 were administered intraperitoneally (IP) or orally (PO) 2 hours before the experiment was performed.
The right hind foot tactile response test (von Frey test) was performed 5 times (before the fibromyalgia model, and on the 1st, 2nd, 4th and 6th days after the model was generated). Before all behavioral tests, rats were accustomed to the environment for 30 minutes, and all experimenters performing behavioral tests were made blind to drug administration information. Before model generation, baseline measurements were performed by performing the von Frey test on all rats. The rat was placed on a wired mesh and placed in a transparent plastic box (20×20×14 cm), and the foot withdrawal threshold was measured by applying a von Frey filament (ascending weight: 0.4, 0.6, 1.4, 2, 4, 6, 8, and 15 g, North Coast) to the middle of the right hind foot to assess foot allodynia.

[7] = system: MPTP-induced PD mouse model; experiment: MPTP-induced PD mouse model: TH staining of striatum and substantia nigra; format: in vivo; settings: PO QD Day 1-7; Nilotinib 40 mg/kg, Example 3 2/10/50 mg/kg, Example 2 50 mg/kg; vs MPTP group G2
Description: Mice at 7 weeks of age were divided into 7 groups as shown in Table 9 below to generate an acute MPTP model and proceed with drug administration: control group+vehicle (G1), MPTP+vehicle (G2), MPTP+Nilotinib 40 mg/kg (G3), MPTP+Example 3 2 mg/kg (G4), MPTP+Example 3 10 mg/kg (G5), MPTP+Example 3 50 mg/kg (G6), and MPTP+Example 2 50 mg/kg (G7). The test drug was administered orally (PO) at 10 ml/kg once daily (QD) from Day 1 to Day 7. The acute MPTP model will be performed at 2-hour intervals in all groups except the control group. […] was administered as intraperitoneal (IP) injection for 4 doses. The control group was given the same amount of 0.9% saline. The Pole test was performed on day 4 (after training on day 2 and day 3). On day 7, all mice were euthanized, and their brains were harvested.
Mice were euthanized with Zoletil administration for collection of tissue samples for staining and analysis of histological sections. Blood was collected from the heart of the mouse and then the residual blood was perfused with phosphate-buffered saline (PBS). For half of the mice (n=6/group), the brain was incised into the striatum, substantia nigra, and the rest of the brain, flash-frozen, and stored at −80° C. The remaining mice (n=6/group) had their brains isolated and immobilized in 4% paraformaldehyde for 24 hours at 4° C., followed by 30% sucrose in phosphate-buffered saline (PBS) containing 0.02% sodium azide and stored at 4° C. for 3 days. Immunohistochemical sections were performed on brain samples embedded with optimal cutting temperature (OCT) compounds. Samples were sectioned to a thickness of 20 μm using Leica CM1950 (Leica Microsystems, Germany) and stored at 4° C. in a preservation solution until staining with antibodies.
After staining the striatum and substantia nigra of the brain and mounting them on microscopic slides, the slides were washed with PBS containing 0.3% Triton X-100 and peroxidase block for 15 min at room temperature. The slides were washed three times with PBS containing 0.3% Triton X-100 and then blocked at RT (room temperature) for 1 hour in a solution containing PBS, 5% normal goat serum, and 0.3% Triton X-100. Tyrosine hydroxylase antibody was diluted at 1:1000 and incubated overnight at 4° C. The slides were washed with PBS solution and incubated for 1 h at RT with secondary antibody. The slides were washed with PBS solution and the sections were placed in the solution to proceed with the DAB (diaminobenzidine) reaction.
The DAB response was monitored under a microscope for 2 to 3 minutes, and the slides were washed with PBS to stop the DAB response, dehydrated, and mounted using xylene. An Olympus microscope (Olympus, SZ61, BX51) was used to visualize TH stained images. The optical density (OD) value of positive TH staining was measured in the striatum and substantia nigra and analyzed using Image J software.

[8] = oral 10 mg/kg, samples at 1, 4, 8 hours

Cc1cc(F)c(C(=O)Nc2cccc(-c3nncn3C(C)C)n2)cc1-n1cnc(C2CC2)c1 [Comparative Example 1, Selonsertib, reference compound]
viability at 0.1 µM (PC12 cells [1]; compound 0.1 μM): 83.6%
viability at 0.3 µM (PC12 cells [1]; compound 0.3 μM): 81.3%
viability at 1 µM (PC12 cells [1]; compound 1 μM): 81.3%
EC50 (SH-SY5Y cells): 89 nM
Picrosirius red staining area in the liver [2]: significantly reduced
viability at 0.1 µM (PC12 cells [3]; compound 0.1 μM): 87.9%
viability at 0.3 µM (PC12 cells [3]; compound 0.3 μM): 89.2%
viability at 1 µM (PC12 cells [3]; compound 1 μM): 84.1%
Kp ([4]; male, brain/plasma, po, 10 mg/kg): 0.004
Aukinf brain [4, 8]: 0.26 ± 0.03 ug*h · g.
Aukinf plasma [4, 8]: 69.9 ± 3.48 µg·mL·h

O=C(Nc1cccc(-n2nnc3c2CCC3)n1)c1cc(-n2cnc(C3CC3)c2)ccc1OC(F)F [Example 26, 5-(4-cyclopropyl-1H-imidazol-1-yl)-2-(difluoromethoxy)-N-(6-(5,6-dihydrocyclopenta[d][1,2,3]triazol-1 (4H)-yl)pyridin-2-yl)benzamide]
remaining activity at 0.5 µM [5]: 1%

O=C(Nc1cccc(-n2nnc3c2CCCC3)n1)c1cc(-n2cnc(C3CC3)c2)ccc1OC(F)F [Example 27]
remaining activity at 0.5 µM [5]: 4%

NCC1(CC(=O)O)CCCCC1 [Gabapentin, reference compound]
sensitivity (foot withdrawal threshold, von Frey test) [6]: gradually improved over time

Cc1cn(-c2cc(NC(=O)c3ccc(C)c(Nc4nccc(-c5cccnc5)n4)c3)cc(C(F)(F)F)c2)cn1 [Nilotinib, reference compound]
TH levels in striatum [7]: significantly higher than those in G2
